Read-outs that look alike come from different tables or passages of the source.
What was measured:
[1] = system: HCC-2998; assay: NCI SRB screen, HCC-2998; details: Homo sapiens, HCC 2998, 48 h, read-out: GI50 values
[2] = system: CNS cancer cell lines; assay: NCI SRB screen, CNS panel average; details: Homo sapiens, 48 h, read-out: Log10 GI50 (converted)
[3] = system: Melanoma cell lines; assay: NCI SRB screen, Melanoma panel average; details: Homo sapiens, 48 h, read-out: Log10 GI50 (converted)
[4] = system: SK-MEL-5; assay: NCI SRB screen, SK-MEL-5; details: Homo sapiens, SK-MEL-5, 48 h, read-out: GI50 values, Melanoma, SK-MEL-5
[5] = system: HOP-62; assay: NCI SRB screen, HOP-62; details: Homo sapiens, HOP-62, 48 h, read-out: GI50 values
[6] = system: M14; assay: NCI SRB screen, M14; details: Homo sapiens, M14, 48 h, read-out: GI50 values
[7] = system: MALME-3M; assay: NCI SRB screen, MALME-3M; details: Homo sapiens, 48 h, read-out: GI50 values
[8] = system: BT-549; assay: NCI SRB screen, BT-549; details: Homo sapiens, BT-549, 48 h, read-out: GI50 values
[9] = system: TK-10; assay: NCI SRB screen, TK-10; details: Homo sapiens, TK-10, 48 h, read-out: GI50 values
[10] = system: 786-0; assay: NCI SRB screen, 786-0; details: Homo sapiens, 786-0, 48 h, read-out: GI50 values
[11] = system: MDA-MB-435; assay: NCI SRB screen, MDA-MB-435 (Melanoma panel); details: Homo sapiens, MDA-MB-435, 48 h, read-out: GI50 values
[12] = system: OVCAR-4; assay: NCI SRB screen, OVCAR-4; details: Homo sapiens, OVCAR-4, 48 h, read-out: GI50 values
[13] = system: Colon cancer cell lines; assay: NCI SRB screen, Colon panel average; details: Homo sapiens, 48 h, read-out: Log10 GI50 (converted)
[14] = system: SR; assay: NCI SRB screen, SR; details: Homo sapiens, 48 h, read-out: GI50 values
[15] = system: ACHN; assay: NCI SRB screen, ACHN; details: Homo sapiens, 48 h, read-out: GI50 values
[16] = system: NCI/ADR-RES; assay: NCI SRB screen, NCI/ADR-RES; details: Homo sapiens, 48 h, read-out: GI50 values
[17] = system: SN12C; assay: NCI SRB screen, SN12C; details: Homo sapiens, 48 h, read-out: GI50 values
[18] = system: HCT-116; assay: NCI SRB screen, HCT-116; details: Homo sapiens, HCT-116, 48 h, read-out: GI50 values
[19] = system: T-47D; assay: NCI SRB screen, T-47D; details: Homo sapiens, T47D, 48 h, read-out: GI50 values
[20] = system: Renal cancer cell lines; assay: NCI SRB screen, Renal panel average; details: Homo sapiens, 48 h, read-out: Log10 GI50 (converted)
[21] = system: NCI-H522; assay: NCI SRB screen, NCI-H522
[22] = system: A549/ATCC; assay: NCI SRB screen, A549/ATCC; details: Homo sapiens, A549, 48 h, read-out: GI50 values
[23] = system: K-562; assay: NCI SRB screen, K-562; details: Homo sapiens, K562, 48 h, read-out: GI50 values
[24] = system: OVCAR-5; assay: NCI SRB screen, OVCAR-5; details: Homo sapiens, OVCAR-5, 48 h, read-out: GI50 values
[25] = system: NCI-H226; assay: NCI SRB screen, NCI-H226; details: Homo sapiens, NCI-H226, 48 h, read-out: GI50 values
[26] = system: HL-60(TB); assay: NCI SRB screen, HL-60(TB); format: cell-based; details: Homo sapiens, Leukemia, 48 h
[27] = system: HS 578T; assay: NCI SRB screen, HS 578T; details: Homo sapiens, 48 h, read-out: GI50 values
[28] = system: SF-295; assay: NCI SRB screen, SF-295; details: Homo sapiens, SF-295, 48 h, read-out: GI50 values
[29] = system: CCRF-CEM; assay: NCI SRB screen, CCRF-CEM; details: Homo sapiens, 48 h, read-out: GI50 values
[30] = system: OVCAR-3; assay: NCI SRB screen, OVCAR-3; details: Homo sapiens, OVCAR-3, 48 h, read-out: GI50 values
[31] = system: Non-small-cell lung cancer cell lines; assay: NCI SRB screen, Non-small-cell lung panel average; details: Homo sapiens, 48 h, read-out: Log10 GI50 (converted)
[32] = system: SNB-19; assay: NCI SRB screen, SNB-19; details: Homo sapiens, SNB-19, 48 h, read-out: GI50 values
[33] = system: MDA-MB-231/ATCC; assay: NCI SRB screen, MDA-MB-231/ATCC; details: Homo sapiens, MDA-MB-231, 48 h, read-out: GI50 values
[34] = system: MCF7; assay: NCI SRB screen, MCF7; details: Homo sapiens, MCF7, 48 h, read-out: GI50 values
[35] = Homo sapiens, NCI-H522, 48 h, read-out: GI50 values, Non-small cell lung, NCI-H522

SMILES | GI50 [1] [µM] | GI50 [2] [µM] | GI50 [3] [nM] | GI50 [4] [nM] | GI50 [5] [µM] | GI50 [6] [nM] | GI50 [7] [nM] | GI50 [8] [nM] | GI50 [9] [nM] | GI50 [10] [µM] | GI50 [11] [nM] | GI50 [12] [nM] | GI50 [13] [µM] | GI50 [14] [µM] | GI50 [15] [µM] | GI50 [16] [µM] | GI50 [17] [µM] | GI50 [18] [µM] | GI50 [19] [nM] | GI50 [20] [nM] | other results
COc1cc(-c2cc(-c3nc4ccccc4[nH]3)[nH]n2)cc(OC)c1OC [6f, 2-(3-(3,4,5-trimethoxyphenyl)-1H-pyrazol-5-yl)-1H-benzo[d]imidazole] | 7.1 | 5.25 | 2090 | 1340 | 3.54 | 2570 | 1950 | 1800 | 4070 | 3.66 | 2350 | 1260 | 4.79 | 3.32 | 2.77 | 2.88 | 3.91 | 3.15 | 1110 | 2630 | GI50 [21, 35]: 1840 nM; GI50 ([21]; read-out: GI50 values, Non-small cell lung, NCI-H522, 48 h): 1870 nM; GI50 [22]: 2.43 µM; GI50 [23]: 3.08 µM; GI50 [24]: 1300 nM; GI50 [25]: 1140 nM; GI50 [26]: 2540 nM; GI50 [27]: 6.89 µM; GI50 [28]: 3.13 µM; GI50 [29]: 2120 nM; GI50 [30]: 4 µM; GI50 [31]: 2.4 µM; GI50 [32]: 1.78 µM; GI50 [33]: 3.22 µM; GI50 [34]: 2.79 µM
c1ccc2[nH]c(-c3cc(-c4ccc5c(c4)OCO5)n[nH]3)nc2c1 [6g, 2-(3-(benzo[d][1,3]dioxol-5-yl)-1H-pyrazol-5-yl)-1H-benzo[d]imidazole] | 3.74 | 4.27 | 3020 | 1530 | 8.46 | 2190 | 2330 | 2120 | 1090 | 4.58 | 3120 | 2160 | 4.07 | 3.37 | 4.33 | 4.08 | 3.73 | 6.36 | 3320 | 2040 | GI50 [21, 35]: 1980 nM; GI50 [22]: 4.23 µM; GI50 [23]: 3.83 µM; GI50 [24]: 1490 nM; GI50 [25]: 4420 nM; GI50 [26]: 2270 nM; GI50 [27]: 3.8 µM; GI50 [28]: 3.24 µM; GI50 [29]: 2520 nM; GI50 [30]: 3.21 µM; GI50 [31]: 4.57 µM; GI50 [32]: 5.92 µM; GI50 [33]: 4.12 µM; GI50 [34]: 3.78 µM
